1 compound from patent US20250214978A1, “AT2R AGONIST” (WUHAN HUMANWELL INNOVATIVE DRUG RESEARCH AND DEVELOPMENT …, priority 2022, published 2025) can be followed below.

As usually defined, the Papp A→B is the apparent permeability from the apical to the basolateral side of a cell layer. Low readings indicate poor permeation, high ones ready permeation. The IC50 is the concentration needed to halve the response being measured. By inhibition is commonly meant the relative decrease from the control value, in per cent.

A short description of data set [1]: Bidirectional permeability study in CACO-2 cells. In kind it is in vitro ADME. Conditions: human, pH 7.4, Caco-2 monolayer, pH 7.40. How it is done:
Caco-2 cells were inoculated onto polyethylene membrane (PET) in 96-well inserted plates at a rate of 1×10^5 cells/cm^2, and the medium was changed every 4 to 5 days until day 21 to 28, to form a fused cell monolayer. The transport buffer in the assay was HBSS and 10.0 mM HEPES, with a pH of 7.40±0.05. The test compounds were subjected to a bidirectional test at 2.00 μM in the presence and absence of GF120918 (10.0 μM). Digoxin was subjected to a bidirectional test at 10.0 μM in the presence and absence of GF120918 (10.0 μM), while Nadolol and Metoprolol were subjected to a test from direction A to direction B at 2.00 μM in the absence of GF120918 (10.0 μM). The above tests were performed in duplicate. The final concentration of DMSO was adjusted to be lower than 1%. The plate was incubated in a CO2 incubator at 37° C.±1° C. for 2 hours, and 5% CO2 was added under saturated humidity without shaking. All the samples, after being mixed with acetonitrile containing internal standard, were centrifuged at 3,200 g for 10 minutes. […] The concentrations of the test compounds and control compounds in the starting solution, the donor solution, and the acceptor solution were quantified by LC-MS/MS based on a peak area ratio of the analyte to the internal standard.
After the transport assay, the integrity of the Caco-2 cell monolayer was determined using Lucifer Yellow Exclusion Assay.
Background: Caco-2 monolayers are a common model of the intestinal barrier.

Data set [2] can be described thus: Liver microsome stability assay. It counts as in vitro ADME. Conditions: Mouse liver microsomes; read-out: T1/2 (min) Mouse.
Data set [3] in a line: Liver microsome stability assay. In kind it is in vitro ADME. The note with it: dog; Canine liver microsomes; read-out: T1/2 (min) Canine. In general terms: Liver microsomes are vesicles of endoplasmic reticulum, rich in cytochrome P450 enzymes.
Another data set has as its target AT2R (Homo sapiens (Human), UniProt P50052). Nature of the data set: Binding assay of compounds to AT2R (Tag-lite HTRF ligand binding kit). Conditions: 1 hour incubation at room temperature. As for the experimental part:
The assay was performed in accordance with the instruction manual of Angiotensin AT2 Receptor Ligand Binding Assay Kit (#C1TT1AT2, Cisbio). First, a compound stock solution (10 mM) was diluted in a gradient at a 5× dilution ratio (including 10 concentrations, each with two replicates). 160 nL of compounds at different concentrations was added to a 384-well plate. 40 μL of 1×TLB was added to each well, and the mixture was shaken at room temperature for 15 minutes. 15 mL centrifuge tube added with 5 mL of 1×TLB was prepared in advance. The frozen labeled cells were thawed in a water bath at 37° C. (for 1 to 2 minutes), and the thawed cells were quickly transferred to the above 15 mL centrifuge tube. The mixture was mixed well and centrifuged at 1,000 g at room temperature for 5 minutes. The supernatant was removed, and the cells were resuspended by adding 2.7 mL 1×TLB. A new 384-well plate was taken, and 10 μL of mixed cells were added into the corresponding wells according to the assay design. 5 μL of 4× compound solution and 5 μL of 4× Tag-lite red fluorescent labeled ligand were added to each well. After incubation at room temperature for 1 hour, data were read using EnVision with an HTRF mode. The excitation light intensities at 665 nM and 615 nM in each well were read respectively, and the ratio was calculated (Ratio=A665nMIB615 nM). The IC50 value was calculated by means of GraphPad Prism8 software, where X represents logarithmic value of compound concentration; and Y represents ratio of A665 nM/B615 nM.
On the technique in general: TR-FRET usually uses a lanthanide donor and a delayed reading to cut background.

The next data set addresses CYP2C8 (Homo sapiens (Human), UniProt P10632). Nature of the data set: CYP inhibition assay in mixed human liver microsomes. It counts as in vitro ADME. The note with it: mixed (pooled) human liver microsomes, read-out: Inhibition rate % CYP2C8. As for the experimental part: (§1) The inhibitory effects of the compounds on seven enzymes, i.e., CYP1A2, CYP2C9, CYP2C19, CYP2D6, CYP3A4 (midazolam), CYP2B6, and CYP2C8, were evaluated at a concentration of 10 μM. Mixed human liver microsomes, which were previously stored in a −80° C. refrigerator before use, were taken out and thawed in a water bath at 37° C. before use, and placed on ice for further operation. 100 μL of microsome working solution was taken, and added with 2 μL of test product or positive inhibitor working solution. 2 μL of solvent was added to the solvent control. The mixture was pre-incubated in a water bath at 37° C. for 10 minutes. After preincubation, 98 μL of NADPH regeneration solution was added to all samples to initiate the reaction. Then, the samples were put back into the water bath and incubated for a period of time. The reaction was quenched with 200 μL of stop solution. The plate was centrifuged at 3,220 g for 10 minutes, 100 μL of supernatant was transferred, and 100 μL of water was added and mixed well to the assay plate for LC/MS/MS analysis.

The next data set concerns the target CYP1A2 (Homo sapiens (Human), UniProt P05177). Described as above. It counts as in vitro ADME. As for the experimental part: as §1
The target in a further data set is CYP3A4 (Homo sapiens (Human), UniProt P08684). The data set is described as above. Conditions: mixed (pooled) human liver microsomes, probe midazolam, read-out: Inhibition rate % CYP3A4 (midazolam). It counts as in vitro ADME. As for the experimental part:
as §1

A short description of data set [4]: Liver microsome stability assay. In kind it is in vitro ADME. Conditions: Human liver microsomes, NADPH, 37° C.; read-out: T1/2 (min) Human. As for the experimental part: The human liver microsome stability assay was performed by co-incubating the compound with human liver microsomes in vitro. The test compounds were first prepared as 10 mM stock solutions in DMSO solvent, and then diluted to 0.5 mM with acetonitrile. Human liver microsomes (Corning) were diluted with PBS to prepare a microsome/buffer solution, and this solution was used to dilute 0.5 mM of the compound to prepare a working solution. In the working solution, a concentration of the compound was 1.5 μM and a concentration of the human liver microsome was 0.75 mg/ml. A deep-well plate was taken, 30 μL of working solution was added to each well of the plate, and then 15 μL of pre-heated NADPH solution (6 mM) was added to start the reaction. The mixture was incubated at 37° C. 135 μL of acetonitrile was added to the corresponding wells to stop the reaction at 0 minute, 5 minutes, 15 minutes, 30 minute, and 45 minutes of incubation. Subsequent to the stop of the reaction by means of acetonitrile at the last time point of 45 minute, the plate was vortexed for 10 minutes (600 rpm/min) and then centrifuged for 15 minutes. […] The peak area ratios of the compound at 5 minutes, 15 minutes, 30 minutes, and 45 minutes were compared with the peak area ratio at 0 minute, and the remaining percentage of the compound at each time point was calculated. T1/2 was calculated using Graphpad8 software.

Where two headings read alike, the source gives them in different places.

Sequence of CYP2C8 (P10632 whole entry): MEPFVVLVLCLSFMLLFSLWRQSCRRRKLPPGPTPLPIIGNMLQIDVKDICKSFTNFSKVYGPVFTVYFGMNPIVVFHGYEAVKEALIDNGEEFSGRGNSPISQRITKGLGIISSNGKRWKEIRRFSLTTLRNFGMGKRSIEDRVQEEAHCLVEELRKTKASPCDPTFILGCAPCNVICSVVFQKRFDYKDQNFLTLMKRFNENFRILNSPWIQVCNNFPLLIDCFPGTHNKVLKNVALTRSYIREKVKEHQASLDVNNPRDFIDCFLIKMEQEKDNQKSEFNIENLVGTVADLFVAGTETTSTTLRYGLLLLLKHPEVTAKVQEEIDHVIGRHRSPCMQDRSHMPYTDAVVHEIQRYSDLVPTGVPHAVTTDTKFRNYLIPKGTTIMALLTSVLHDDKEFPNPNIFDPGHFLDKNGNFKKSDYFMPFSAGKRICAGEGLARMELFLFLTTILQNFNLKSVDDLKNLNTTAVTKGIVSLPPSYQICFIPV
Sequence of CYP1A2 (P05177 whole entry): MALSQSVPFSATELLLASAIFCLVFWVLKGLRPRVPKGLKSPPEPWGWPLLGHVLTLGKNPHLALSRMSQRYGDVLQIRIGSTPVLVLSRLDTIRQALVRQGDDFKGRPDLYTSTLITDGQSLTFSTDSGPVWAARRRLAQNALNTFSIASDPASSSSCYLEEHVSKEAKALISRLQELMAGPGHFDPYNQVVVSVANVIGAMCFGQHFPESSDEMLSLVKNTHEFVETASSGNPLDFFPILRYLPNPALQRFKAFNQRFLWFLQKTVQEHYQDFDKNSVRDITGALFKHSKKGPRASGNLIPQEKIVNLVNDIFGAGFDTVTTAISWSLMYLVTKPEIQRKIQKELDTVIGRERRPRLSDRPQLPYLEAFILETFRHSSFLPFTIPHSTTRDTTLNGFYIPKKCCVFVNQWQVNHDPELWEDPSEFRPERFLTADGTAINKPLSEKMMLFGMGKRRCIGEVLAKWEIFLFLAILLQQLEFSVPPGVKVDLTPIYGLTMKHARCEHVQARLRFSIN
Sequence of AT2R (P50052 whole entry): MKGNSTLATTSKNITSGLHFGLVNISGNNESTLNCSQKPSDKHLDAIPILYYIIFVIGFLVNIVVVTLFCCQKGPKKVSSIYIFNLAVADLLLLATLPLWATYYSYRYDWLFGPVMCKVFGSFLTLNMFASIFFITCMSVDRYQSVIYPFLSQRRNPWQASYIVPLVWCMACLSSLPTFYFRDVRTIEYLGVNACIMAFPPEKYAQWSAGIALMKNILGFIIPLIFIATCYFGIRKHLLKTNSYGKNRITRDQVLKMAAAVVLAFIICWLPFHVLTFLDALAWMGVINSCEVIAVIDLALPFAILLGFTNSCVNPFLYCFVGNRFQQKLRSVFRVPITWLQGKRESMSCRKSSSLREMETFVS
Sequence of CYP3A4 (P08684 whole entry): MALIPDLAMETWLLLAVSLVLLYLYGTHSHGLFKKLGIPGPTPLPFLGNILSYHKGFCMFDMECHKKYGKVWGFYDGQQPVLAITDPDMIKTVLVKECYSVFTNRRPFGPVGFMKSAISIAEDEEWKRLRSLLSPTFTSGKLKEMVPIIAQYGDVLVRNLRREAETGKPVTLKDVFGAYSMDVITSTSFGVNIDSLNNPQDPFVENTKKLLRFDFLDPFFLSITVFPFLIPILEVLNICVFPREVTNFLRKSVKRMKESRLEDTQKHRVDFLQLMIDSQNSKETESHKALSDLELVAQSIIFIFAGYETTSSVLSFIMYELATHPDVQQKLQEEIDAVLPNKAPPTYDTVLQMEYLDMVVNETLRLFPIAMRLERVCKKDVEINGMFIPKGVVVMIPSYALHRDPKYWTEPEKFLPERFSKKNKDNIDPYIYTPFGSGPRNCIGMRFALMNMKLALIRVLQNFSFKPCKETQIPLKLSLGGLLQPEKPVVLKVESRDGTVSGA

Take `COC(=O)NS(=O)(=O)c1sc(CC(C)C)c(C)c1-c1ccc(Cn2ccnc2Cl)cc1` [Compound I-34, Methyl ((3-(4-((2-chloro-1H-imidazol-1-yl)methyl)phenyl)-5-isobutyl-4-methylthiophen-2-yl)sulfonyl)carbamate]: in data set [1], the Papp A→B at 2 h, 2 μM was found to be 3.13 ×10⁻⁶ cm/s. Moreover, the half-life at 1 μM was 61.9 min in data set [2], 122 min in data set [3] and 45 min in data set [4]. On AT2R, this compound had an IC50 of 4.32 nM. In addition, the inhibition at 10 µM on CYP2C8 worked out at 71.8%; on CYP1A2, 2.82%; on CYP3A4 it was 3.8%.
